One data set has as its system Anas platyrhynchos. To be noted: for LD50: oral, mortality.
In a further data set the test system is Apis mellifera. The following applies: acute; duration: 48 hours; dermal; mortality.
The test system of the next data set is Canidae. The following applies: oral, Dog Other, clinical signs.
A further data set relates to Colinus virginianus. To be noted: acute, oral, mortality.
The next data set concerns Daphnia magna. To be noted: chronic/long-term; duration: 21 days; reproduction.
Another data set has as its system Folsomia candida. The following applies: chronic/long-term; duration: 28 days.

In brackets after ≈: the same amount, converted by molar mass.

For orientation: NOAEL means the highest dose or exposure tested at which no adverse effect was seen.

For the compound `CCc1nn(C)c(C(=O)NCc2ccc(C(C)(C)C)cc2)c1Cl` [Tebufenpyrad], the LD50 is greater than 2000 mg/kg-day in the data set on Anas platyrhynchos (acute, unspecified); greater than 75 mg/kg-day with Anas platyrhynchos (short-term, feed); greater than 6.7 µg/piece with Apis mellifera; greater than 439 mg/kg-day with Colinus virginianus (diet); greater than 2000 mg/kg-day with Colinus virginianus; 320 mg/kg-day in the data set with Rattus norvegicus (acute, oral, M/F, Fischer 344, mortality). Moreover, the NOEL in the data set with Anas platyrhynchos (reproductive) amounted to 6.6 mg/kg-day; in the data set on Rattus norvegicus (chronic, body weight), 8.4 mg/kg-day. Further, the NOAEL came out at 2 mg/kg-day with Canidae (chronic, duration: 1 years); 2 mg/kg-day in the data set on Canidae (subchronic, duration: 90 days); 0.8 mg/kg-day in the data set on Rattus norvegicus (chronic, duration: 2 years, oral, diet, organ weight); 15.3 mg/kg-day in the data set with Rattus norvegicus (reproduction developmental, reproduction); 0.7 mg/kg-day in the data set with Rattus norvegicus (subchronic, duration: 90 days, oral, organ weight). Moreover, the NOEC in the data set with Daphnia magna is 0.0024 mg/L; in the data set with Folsomia candida it was 9.38 g/ha; in the data set on Oncorhynchus mykiss (chronic/long-term, duration: 94 days) it was 0.00245 mg/L; in the data set on Tagia sp. (chronic/long-term) it was 0.66 mg/kg. Besides, the LC50 with Oncorhynchus mykiss (acute, duration: 96 hours, mortality) stood at 0.03 µg/mL (≈ 0.0899 µM); in the data set on Tagia sp. (acute, duration: 14 days, mortality), 41 mg/kg.

The values are drawn from EPA's ToxValDB 9.5 (doi:10.2903/j.efsa.2009.192r).
